In one experiment the target is Tyk2 kinase domain (DH1) (Homo sapiens (Human), UniProt P29597). Description: Tyk2 Radioactive Kinase Assay. It counts as biochemical. The following applies: for inhibition at 10 µM: read-out: Tyk2 JH1% Inhibition @ 10 μM. The method in brief:
(§1)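 Each kinase domain is incubated with test compound at 10 μM. Activity is then measured radiometrically and expressed as percent inhibition relative to uninhibited enzyme.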

Experiment [1] concerns the target JAK2/JAK2 homdimeric complex (Homo sapiens (Human), UniProt O60674). The experiment can be described thus: GM-CSF Induced pSTAT5 in Human PBMC. Type of experiment: cell-based. The following applies: GM-CSF 5 ng/mL for 20 minutes, pSTAT5 by MSD, read-out: PBMC_GMCSF_pSTAT5 IC50.
The target of experiment [2] is human TYK2 (JH2domain-pseudokinase) (Homo sapiens (Human), UniProt P29597). The experiment can be described thus: TYK2 JH2 Domain Binding Assay (KINOMEscan). The procedure, abridged: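 Competition binding of a DNA-tagged fusion of human TYK2 JH2 pseudokinase (G556–D888) with NFkB DNA-binding domain, from HEK293 extracts (<0.1 nM final), against immobilised ligand beads; 1 h shaking at room temperature, 0.9% DMSO. Bound kinase quantified by qPCR.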

Experiment [3] concerns the target Tyk2/JAK2 (heterodimeric complex) (Homo sapiens (Human), UniProt P29597). The experiment can be described thus: IL-12 Induced pSTAT4 in Human PBMC. Type of experiment: cell-based. The following applies: 1.7 ng/mL IL-12. The text has this:
The IL-12 Induced pSTAT4 assay evaluates the inhibition of IL-12 induced STAT4 phophorylation mediated by Tyk2/JAK2 (heterodimeric complex).

Another experiment concerns the target JAK2 kinase domain (JH1) (Homo sapiens (Human), UniProt O60674). Description: JAK2 Radioactive Kinase Assay. Type of experiment: biochemical. The following applies: for inhibition at 10 µM: read-out: JAK2 JH1% Inhibition @ 10 μM. The method in brief:
as §1

Results on eleven compounds are retold here after patent publication US10508120B2, “TYK2 inhibitors and uses thereof” (Nimbus Lakshmi, Inc., priority 2017, dated 2019).

SMILES strings stand for the structures. Read-outs that look alike come from different tables or passages of the source.

Sequence of JAK2 kinase domain (JH1) (O60674 849-1124): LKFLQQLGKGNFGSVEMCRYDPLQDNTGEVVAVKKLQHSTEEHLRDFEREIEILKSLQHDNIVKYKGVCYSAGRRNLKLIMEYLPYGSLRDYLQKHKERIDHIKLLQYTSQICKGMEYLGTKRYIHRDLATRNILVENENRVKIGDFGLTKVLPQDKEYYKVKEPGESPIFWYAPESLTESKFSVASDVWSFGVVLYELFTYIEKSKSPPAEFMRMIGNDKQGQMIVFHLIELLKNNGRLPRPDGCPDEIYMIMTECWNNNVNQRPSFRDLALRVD
Sequence of JAK2/JAK2 homdimeric complex (O60674 whole entry, the tested form may be a part): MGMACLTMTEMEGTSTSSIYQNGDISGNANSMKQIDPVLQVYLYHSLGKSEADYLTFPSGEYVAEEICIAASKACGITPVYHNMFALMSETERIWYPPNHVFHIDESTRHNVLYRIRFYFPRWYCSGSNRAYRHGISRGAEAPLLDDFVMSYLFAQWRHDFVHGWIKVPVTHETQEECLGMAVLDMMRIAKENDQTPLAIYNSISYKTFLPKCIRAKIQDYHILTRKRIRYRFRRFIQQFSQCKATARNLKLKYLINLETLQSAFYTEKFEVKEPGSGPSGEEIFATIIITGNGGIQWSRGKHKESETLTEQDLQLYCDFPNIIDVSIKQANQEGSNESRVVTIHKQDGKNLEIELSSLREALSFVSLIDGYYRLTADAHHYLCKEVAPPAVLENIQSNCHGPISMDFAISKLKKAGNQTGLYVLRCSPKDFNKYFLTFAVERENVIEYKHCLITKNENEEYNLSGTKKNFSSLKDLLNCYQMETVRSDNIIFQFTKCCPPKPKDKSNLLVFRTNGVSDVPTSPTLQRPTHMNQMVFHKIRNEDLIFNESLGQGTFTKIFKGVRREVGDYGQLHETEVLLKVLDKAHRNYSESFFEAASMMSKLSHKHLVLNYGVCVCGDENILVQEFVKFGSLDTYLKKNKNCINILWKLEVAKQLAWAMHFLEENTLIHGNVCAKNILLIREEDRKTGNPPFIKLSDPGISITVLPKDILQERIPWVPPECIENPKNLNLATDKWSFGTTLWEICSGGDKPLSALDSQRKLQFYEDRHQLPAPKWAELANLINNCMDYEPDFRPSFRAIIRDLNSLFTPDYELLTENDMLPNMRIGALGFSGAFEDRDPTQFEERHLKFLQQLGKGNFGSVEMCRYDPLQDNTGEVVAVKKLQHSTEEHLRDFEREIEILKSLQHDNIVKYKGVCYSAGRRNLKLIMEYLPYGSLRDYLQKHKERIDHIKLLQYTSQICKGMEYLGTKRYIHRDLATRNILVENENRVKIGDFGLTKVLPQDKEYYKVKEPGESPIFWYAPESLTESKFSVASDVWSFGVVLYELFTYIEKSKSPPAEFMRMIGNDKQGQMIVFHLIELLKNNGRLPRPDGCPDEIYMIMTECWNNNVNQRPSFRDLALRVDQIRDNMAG
Sequence of JAK2/JAK2 homdimeric complex (P32927 17-897 partner): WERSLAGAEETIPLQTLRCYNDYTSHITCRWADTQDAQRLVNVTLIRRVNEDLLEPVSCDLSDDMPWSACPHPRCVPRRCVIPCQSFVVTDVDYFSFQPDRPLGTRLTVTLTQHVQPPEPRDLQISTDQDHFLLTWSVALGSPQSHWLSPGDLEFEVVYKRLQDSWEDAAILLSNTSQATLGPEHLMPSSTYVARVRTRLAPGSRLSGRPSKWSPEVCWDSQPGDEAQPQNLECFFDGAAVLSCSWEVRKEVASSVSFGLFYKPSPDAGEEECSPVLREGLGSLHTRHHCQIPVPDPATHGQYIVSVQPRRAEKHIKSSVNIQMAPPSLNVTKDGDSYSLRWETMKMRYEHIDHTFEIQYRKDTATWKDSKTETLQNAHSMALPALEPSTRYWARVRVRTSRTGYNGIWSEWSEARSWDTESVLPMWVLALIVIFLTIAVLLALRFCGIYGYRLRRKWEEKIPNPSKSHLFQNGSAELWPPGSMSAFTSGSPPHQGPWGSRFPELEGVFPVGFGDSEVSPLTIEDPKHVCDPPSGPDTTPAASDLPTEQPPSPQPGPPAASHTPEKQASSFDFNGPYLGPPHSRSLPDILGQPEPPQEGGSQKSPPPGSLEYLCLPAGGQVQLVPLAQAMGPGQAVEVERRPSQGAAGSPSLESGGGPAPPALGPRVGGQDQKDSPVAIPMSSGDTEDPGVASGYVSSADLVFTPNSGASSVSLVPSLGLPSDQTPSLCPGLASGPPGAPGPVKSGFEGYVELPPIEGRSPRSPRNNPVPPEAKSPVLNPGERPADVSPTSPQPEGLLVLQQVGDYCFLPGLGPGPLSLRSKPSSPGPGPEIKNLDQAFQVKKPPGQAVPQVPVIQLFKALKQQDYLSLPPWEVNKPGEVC
Sequence of Tyk2 kinase domain (DH1) (P29597 897-1176): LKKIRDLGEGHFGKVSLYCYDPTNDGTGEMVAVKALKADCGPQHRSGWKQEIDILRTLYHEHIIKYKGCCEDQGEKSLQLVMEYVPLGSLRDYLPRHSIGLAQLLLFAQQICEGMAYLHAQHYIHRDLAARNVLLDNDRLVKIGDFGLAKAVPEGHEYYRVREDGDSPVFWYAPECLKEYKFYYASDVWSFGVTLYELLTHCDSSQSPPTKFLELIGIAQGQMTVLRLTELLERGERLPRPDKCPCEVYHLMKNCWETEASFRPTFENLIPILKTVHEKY
Sequence of human TYK2 (JH2domain-pseudokinase) (P29597 556-888): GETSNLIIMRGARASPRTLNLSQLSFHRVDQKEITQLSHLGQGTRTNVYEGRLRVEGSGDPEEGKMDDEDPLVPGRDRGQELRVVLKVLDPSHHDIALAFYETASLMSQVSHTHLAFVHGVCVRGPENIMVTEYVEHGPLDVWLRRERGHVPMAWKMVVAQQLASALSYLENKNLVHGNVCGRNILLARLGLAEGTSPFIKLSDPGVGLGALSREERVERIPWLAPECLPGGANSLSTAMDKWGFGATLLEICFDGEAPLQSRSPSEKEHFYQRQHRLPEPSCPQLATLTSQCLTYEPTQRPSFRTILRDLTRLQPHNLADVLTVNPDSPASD
Sequence of Tyk2/JAK2 (heterodimeric complex) (P29597 whole entry, other chains not shown): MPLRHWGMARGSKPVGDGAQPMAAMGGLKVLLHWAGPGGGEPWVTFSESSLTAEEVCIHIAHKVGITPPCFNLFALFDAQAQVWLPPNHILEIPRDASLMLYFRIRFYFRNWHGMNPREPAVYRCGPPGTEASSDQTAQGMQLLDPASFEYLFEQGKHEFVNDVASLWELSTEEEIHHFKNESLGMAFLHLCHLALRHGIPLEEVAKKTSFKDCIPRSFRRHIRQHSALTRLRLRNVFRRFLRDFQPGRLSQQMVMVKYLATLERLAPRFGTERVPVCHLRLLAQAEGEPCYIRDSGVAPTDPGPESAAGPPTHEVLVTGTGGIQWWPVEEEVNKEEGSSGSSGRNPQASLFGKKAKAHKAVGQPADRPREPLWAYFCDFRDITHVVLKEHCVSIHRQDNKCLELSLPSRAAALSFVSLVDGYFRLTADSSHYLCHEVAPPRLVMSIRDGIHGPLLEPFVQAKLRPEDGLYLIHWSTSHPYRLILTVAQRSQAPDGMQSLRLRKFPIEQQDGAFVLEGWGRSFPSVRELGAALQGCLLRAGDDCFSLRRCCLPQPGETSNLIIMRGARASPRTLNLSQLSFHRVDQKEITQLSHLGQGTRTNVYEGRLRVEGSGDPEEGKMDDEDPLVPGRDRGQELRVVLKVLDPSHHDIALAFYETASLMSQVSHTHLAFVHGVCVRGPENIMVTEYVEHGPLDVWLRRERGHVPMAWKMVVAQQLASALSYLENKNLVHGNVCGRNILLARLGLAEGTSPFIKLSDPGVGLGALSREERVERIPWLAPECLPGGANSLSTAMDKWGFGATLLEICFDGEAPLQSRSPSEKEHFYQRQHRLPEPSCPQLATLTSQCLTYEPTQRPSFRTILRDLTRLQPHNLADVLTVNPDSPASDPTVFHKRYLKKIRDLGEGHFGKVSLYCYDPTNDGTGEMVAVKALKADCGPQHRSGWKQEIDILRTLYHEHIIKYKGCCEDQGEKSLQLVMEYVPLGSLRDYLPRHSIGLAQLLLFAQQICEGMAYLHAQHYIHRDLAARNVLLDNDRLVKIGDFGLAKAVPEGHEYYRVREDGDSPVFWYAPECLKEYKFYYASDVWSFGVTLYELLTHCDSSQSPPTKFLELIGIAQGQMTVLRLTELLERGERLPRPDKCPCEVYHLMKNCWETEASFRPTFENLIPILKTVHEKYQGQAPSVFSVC

The inhibition is the drop in the measured response relative to a control, in per cent. The IC50 is the concentration that gives 50% inhibition. Usually Kd stands for the equilibrium constant for the complex coming apart. Consider `CNc1cc(-c2cn(C(C)C)c3ncccc23)nc2c(C(=O)N[C@@H]3COC[C@@H]3O)cnn12` [I-842, N-((3R,4R)-4-hydroxytetrahydrofuran-3-yl)-5-(1-isopropyl-1H-pyrrolo[2,3-b]pyridin-3-yl)-7-(methylamino)pyrazolo[1,5-a]pyrimidine-3-carboxamide], for which the inhibition at 10 µM at Tyk2 kinase domain (DH1) (10 μM compound, 10 μM ATP) is below 50%; at JAK2 kinase domain (JH1) (10 μM compound, 10 μM ATP) it was below 50%. The IC50 is above 50000 nM in experiment [1] and below 100 nM in experiment [3]. Also, the Kd in experiment [2] is below 0.2 nM.
On to `CNc1cc(Nc2cccnc2OC2CC2)nc2c(C(=O)N[C@H]3C[C@H]3F)cnn12` [I-217], for which the inhibition at 10 µM was below 50% on Tyk2 kinase domain (DH1) (compound at 10 μM, ATP 10 μM) and below 50% at JAK2 kinase domain (JH1) (compound at 10 μM, ATP 10 μM). Also, the IC50 in experiment [1] is above 50000 nM; in experiment [3] it was below 100 nM. In experiment [2], the Kd was below 0.2 nM.
Consider `CNc1cc(Nc2cccn([C@H]3CC[C@H](OC)CC3)c2=O)nc2c(C(=O)NC[C@H](C)CO)cnn12` [I-829], for which the inhibition at 10 µM at Tyk2 kinase domain (DH1) (10 μM compound, 10 μM ATP) is below 50%; on JAK2 kinase domain (JH1) (10 μM compound, 10 μM ATP) it was below 50%. The IC50 in experiment [1] is above 50000 nM; in experiment [3], below 100 nM. This compound also yielded a Kd in experiment [2] below 0.2 nM.
For `[2H]C([2H])([2H])Oc1ncc(C)cc1Nc1cc(NC)n2ncc(C(=O)N[C@H]3C[C@H]3F)c2n1` [I-259], the inhibition at 10 µM on Tyk2 kinase domain (DH1) (compound at 10 μM, ATP 10 μM) is below 50%; on JAK2 kinase domain (JH1) (compound at 10 μM, ATP 10 μM) it was below 50%. The results for the IC50 in experiment [1] and in experiment [3] were above 12500 nM and below 100 nM, respectively. The compound further registered a Kd in experiment [2] below 0.2 nM.
As for `CNc1cc(Nc2cc(F)cn(-c3cc(C)n(C)n3)c2=O)nc2c(C(=O)NC3CC3)cnn12` [I-384], the inhibition at 10 µM is below 50% on Tyk2 kinase domain (DH1) (compound at 10 μM, ATP 10 μM) and below 50% on JAK2 kinase domain (JH1) (compound at 10 μM, ATP 10 μM). For the same compound, the values for the half-inhibitory concentration (IC50) in experiment [1] and in experiment [3] were above 300 nM and below 100 nM, respectively. In experiment [2], this compound showed a Kd below 0.2 nM.
As for `CNc1cc(Nc2cc(Cl)cn(C3CCOCC3)c2=O)nc2c(C(=O)N[C@@H]3CC[C@H]3O)cnn12` [I-825], the inhibition at 10 µM is below 50% at Tyk2 kinase domain (DH1) (10 μM compound, 10 μM ATP) and below 50% on JAK2 kinase domain (JH1) (10 μM compound, 10 μM ATP). Moreover, the IC50 was above 50000 nM in experiment [1] and below 100 nM in experiment [3]. Further, the Kd in experiment [2] is below 0.2 nM.
As to `CNc1cc(Nc2cc(Cl)cn(-c3ccc(C)nn3)c2=O)nc2c(C(=O)N[C@H]3C[C@H]3F)cnn12` [I-164], the inhibition at 10 µM on Tyk2 kinase domain (DH1) (compound at 10 μM, ATP 10 μM) was below 50%; on JAK2 kinase domain (JH1) (compound at 10 μM, ATP 10 μM), below 50%. The IC50 in experiment [1] was above 50000 nM; in experiment [3], below 100 nM. Moreover, in experiment [2], the Kd is below 0.2 nM.
Turning to `CNc1cc(Nc2cc(Cl)cn([C@H]3CCCOC3)c2=O)nc2c(C(=O)NC3CC3)cnn12` [I-782], the inhibition at 10 µM on Tyk2 kinase domain (DH1) (compound at 10 μM, ATP 10 μM) is below 50%; at JAK2 kinase domain (JH1) (compound at 10 μM, ATP 10 μM), below 50%. In addition, the results for the IC50 in experiment [1] and in experiment [3] were above 50000 nM and below 100 nM, respectively. The same compound had a dissociation constant Kd in experiment [2] below 0.2 nM.
`CNc1cc(Nc2cccn(C[C@@H]3CCCCO3)c2=O)nc2c(C(=O)NC3CC3)cnn12` [I-413]: the inhibition at 10 µM is below 50% at Tyk2 kinase domain (DH1) (compound at 10 μM, ATP 10 μM) and below 50% on JAK2 kinase domain (JH1) (compound at 10 μM, ATP 10 μM). Moreover, the IC50 in experiment [1] is above 50000 nM; in experiment [3], below 100 nM. The Kd in experiment [2] was below 0.2 nM.
`[2H]C([2H])([2H])Nc1cc(Nc2cccnc2OC)nc2c(C(=O)N[C@@H]3C[C@@H]3F)cnn12` (stereo in doubt) [I-374, N-((1R,2S)-2-fluorocyclopropyl)-5-((2-methoxypyridin-3-yl)amino)-7-((methyl-d3)amino)pyrazolo[1,5-a]pyrimidine-3-carboxamide]: the inhibition at 10 µM is below 50% at Tyk2 kinase domain (DH1) (compound at 10 μM, ATP 10 μM) and below 50% on JAK2 kinase domain (JH1) (compound at 10 μM, ATP 10 μM). The IC50 in experiment [1] is above 50000 nM; in experiment [3] it was below 100 nM. The Kd in experiment [2] was below 0.2 nM.
As to `CNc1cc(Nc2cccn([C@@H]3CCC[C@H](OC)C3)c2=O)nc2c(C(=O)NC3CC3)cnn12` [I-621], on Tyk2 kinase domain (DH1) (compound at 10 μM, ATP 10 μM), the “Tyk2 JH1% Inhibition @ 10 μM” value is reported as “A (percent inhibition at 10 μM lower than 50)”. Also, the IC50 is above 50000 nM in experiment [1] and below 100 nM in experiment [3]. Further, on JAK2 kinase domain (JH1) (compound at 10 μM, ATP 10 μM), the “JAK2 JH1% Inhibition @ 10 μM” value is recorded as “A (percent inhibition at 10 μM lower than 50)”.
